Key:
Assay type in all cases: physicochemical
[1] = Dissolution test of poorly-soluble substances, distilled water
Protocol: (§1) From initiation of the test, the mixed solution was stirred with a stirrer having a length of 15 mm. The rotation number of the stirrer was 120 rpm, and all of the tests were conducted in a thermostat at 37±0.5° C. Two types of test solutions, namely, distilled water and 2nd fluid for disintegration test (pH 6.8) of the Japanese Pharmacopoeia were used. As such 2nd fluid for disintegration test of the Japanese Pharmacopoeia, a solution prepared by diluting the 10-fold concentration solution of Kanto Kagaku Co., Ltd. with distilled water was used.
(§2) A comparative test was carried out in the same manner as that described above, with the exception that, instead of a substance with improved aqueous solubility coated with hydroxyapatite microparticles and with a pH adjuster and/or a surfactant, a poorly-soluble substance or the like was used in the same amount as the substance with improved aqueous solubility.
(§3) […] The thus sampled solution was centrifuged at 12,000 rpm for 5 minutes. Thereafter, the substance with improved aqueous solubility and hydroxyapatite microparticles, which had not been dissolved in the solution, were removed. In the case of the comparative test, the poorly-soluble substance or the like, which had not been dissolved in the solution, was removed. An aliquot of this supernatant was immediately frozen. The frozen sample was freeze-dried, and it was then used as a sample in the measurement of the amount of the substance with improved aqueous solubility, which had been dissolved in the test solution. The dissolved poorly-soluble substance was measured mainly using a dual wavelength absorption photometer.

[2] = pH of aqueous solution after 60 minutes in dissolution test using distilled water
Protocol: Moreover, as described above, since the pH of a local portion that is contacted with a poorly-soluble substance is more important than the pH of a solution as a whole, when an acidic substance is dissolved, desired effects can be obtained even though the pH is not extremely high. It is sufficient if a pH adjuster is used such that the pH of an aqueous solution of a substance with improved aqueous solubility becomes pH 8 or less. […] Herein, the pH of an aqueous solution indicates a pH value that is measured 60 minutes after the addition of a target substance to 50 mL of distilled water in an amount 2 times larger than the substance dissolved in 360 minutes. More specifically, the pH of an aqueous solution indicates a pH value that is measured according to [Dissolution test of poorly-soluble substances] in the below-mentioned Examples.
as §1

[3] = Dissolution test of poorly-soluble substances, 2nd fluid for disintegration test (pH 6.8) of the Japanese Pharmacopoeia
Protocol: as §1, §2, §3
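Further: Comparative example rows not the inventive coated formulation.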

CCCCNC(=O)NS(=O)(=O)c1ccc(C)cc1 [1-5, Tolbutamide]
Dissolved amount, elution time 1 min [1]: 48.8 µg/mL
Dissolved amount, elution time 3 min [1]: 49.3 µg/mL
Dissolved amount, elution time 10 min [1]: 51.3 µg/mL
Dissolved amount, elution time 30 min [1]: 56.6 µg/mL
Dissolved amount, elution time 60 min [1]: 50.5 µg/mL
Dissolved amount, elution time 180 min [1]: 52.9 µg/mL
Dissolved amount, elution time 360 min [1]: 68.6 µg/mL
pH at 60 minutes after dissolution ([2]; Tolbutamide): 4.3
Dissolved amount, elution time 1 min [3]: 637.3 µg/mL
Dissolved amount, elution time 3 min [3]: 1597.2 µg/mL
Dissolved amount, elution time 10 min [3]: 2041.9 µg/mL
Dissolved amount, elution time 30 min [3]: 2141.1 µg/mL
Dissolved amount, elution time 60 min [3]: 2449.4 µg/mL
Dissolved amount, elution time 180 min [3]: 2432.9 µg/mL
Dissolved amount, elution time 360 min [3]: 2429.1 µg/mL

NC(N)=Nc1nc(CSCCC(N)=NS(N)(=O)=O)cs1 [3-4, Famotidine]
Dissolved amount, elution time 1 min [1]: 1162.9 µg/mL
Dissolved amount, elution time 3 min [1]: 1502.6 µg/mL
Dissolved amount, elution time 10 min [1]: 1416.8 µg/mL
Dissolved amount, elution time 180 min [1]: 1509.8 µg/mL
Dissolved amount, elution time 360 min [1]: 1497.4 µg/mL
pH at 60 minutes after dissolution ([2]; Famotidine): 8.4
Dissolved amount, elution time 3 min [3]: 2286.6 µg/mL
Dissolved amount, elution time 10 min [3]: 2541.7 µg/mL
Dissolved amount, elution time 30 min [3]: 2600.9 µg/mL
Dissolved amount, elution time 60 min [3]: 2667.9 µg/mL
Dissolved amount, elution time 180 min [3]: 2509.7 µg/mL
Dissolved amount, elution time 360 min [3]: 2410.4 µg/mL

COc1cc(Cc2cnc(N)nc2N)cc(OC)c1OC [4-3, Trimethoprim]
Dissolved amount, elution time 1 min [1]: 354.6 µg/mL
Dissolved amount, elution time 3 min [1]: 531.0 µg/mL
Dissolved amount, elution time 10 min [1]: 685.0 µg/mL
Dissolved amount, elution time 30 min [1]: 677.9 µg/mL
Dissolved amount, elution time 60 min [1]: 671.8 µg/mL
Dissolved amount, elution time 180 min [1]: 672.0 µg/mL
Dissolved amount, elution time 360 min [1]: 656.3 µg/mL
pH at 60 minutes after dissolution ([2]; Trimethoprim): 8.4
Dissolved amount, elution time 1 min [3]: 807.8 µg/mL
Dissolved amount, elution time 3 min [3]: 1160.4 µg/mL
Dissolved amount, elution time 10 min [3]: 1291.7 µg/mL
Dissolved amount, elution time 30 min [3]: 1344.0 µg/mL
Dissolved amount, elution time 60 min [3]: 1324.8 µg/mL
Dissolved amount, elution time 180 min [3]: 1296.5 µg/mL
Dissolved amount, elution time 360 min [3]: 1321.9 µg/mL

CC(C)(Sc1cc(C(C)(C)C)c(O)c(C(C)(C)C)c1)Sc1cc(C(C)(C)C)c(O)c(C(C)(C)C)c1 [5-2, Probucol]
Dissolved amount, elution time 1 min ([1]; Probucol): 0.7 µg/mL
Dissolved amount, elution time 3 min ([1]; Probucol): 2.7 µg/mL
Dissolved amount, elution time 10 min ([1]; Probucol): 3.7 µg/mL
Dissolved amount, elution time 30 min ([1]; Probucol): 6.1 µg/mL
Dissolved amount, elution time 60 min ([1]; Probucol): 7.6 µg/mL
Dissolved amount, elution time 180 min ([1]; Probucol): 8.3 µg/mL
Dissolved amount, elution time 360 min ([1]; Probucol): 9.7 µg/mL
Dissolved amount, elution time 1 min ([3]; Probucol): 4.7 µg/mL
Dissolved amount, elution time 3 min ([3]; Probucol): 14.9 µg/mL
Dissolved amount, elution time 10 min ([3]; Probucol): 19.9 µg/mL
Dissolved amount, elution time 30 min ([3]; Probucol): 21.2 µg/mL
Dissolved amount, elution time 60 min ([3]; Probucol): 21.8 µg/mL
Dissolved amount, elution time 180 min ([3]; Probucol): 26.8 µg/mL
Dissolved amount, elution time 360 min ([3]; Probucol): 28.0 µg/mL

CCN1CCCC1CNC(=O)c1cc(S(N)(=O)=O)ccc1OC (centres unmarked) [6-4, Sulpiride]
pH at 60 minutes after dissolution ([2]; Sulpiride): 9.3

CC(=O)SC[C@@H](C)C(=O)N1CCC[C@H]1C(=O)N[C@@H](Cc1ccccc1)C(=O)O [8-1, Alacepril]
Dissolved amount, elution time 3 min ([1]; Alacepril): 526.2 µg/mL
Dissolved amount, elution time 10 min ([1]; Alacepril): 805.6 µg/mL
Dissolved amount, elution time 30 min ([1]; Alacepril): 931.2 µg/mL
Dissolved amount, elution time 120 min ([1]; Alacepril): 994.9 µg/mL
Dissolved amount, elution time 360 min ([1]; Alacepril): 996.5 µg/mL
pH at 60 minutes after dissolution ([2]; Alacepril): 2.9
Dissolved amount, elution time 3 min ([3]; Alacepril): 2311.1 µg/mL
Dissolved amount, elution time 10 min ([3]; Alacepril): 2514.7 µg/mL
Dissolved amount, elution time 30 min ([3]; Alacepril): 2525.0 µg/mL
Dissolved amount, elution time 120 min ([3]; Alacepril): 2588.4 µg/mL

CC[C@H]1OC(=O)[C@H](C)[C@@H](O[C@H]2C[C@@](C)(OC)[C@@H](O)[C@H](C)O2)[C@H](C)[C@@H](O[C@@H]2O[C@H](C)C[C@H](N(C)C)[C@H]2O)[C@](C)(O)C[C@@H](C)C(=O)[C@H](C)[C@@H](O)[C@]1(C)O [9-1, Erythromycin]
Dissolved amount, elution time 3 min ([1]; Erythromycin): 635.0 µg/mL
Dissolved amount, elution time 10 min ([1]; Erythromycin): 861.6 µg/mL
Dissolved amount, elution time 30 min ([1]; Erythromycin): 944.7 µg/mL
Dissolved amount, elution time 120 min ([1]; Erythromycin): 927.7 µg/mL
Dissolved amount, elution time 360 min ([1]; Erythromycin): 846.1 µg/mL
pH at 60 minutes after dissolution ([2]; Erythromycin): 9.6
Dissolved amount, elution time 3 min ([3]; Erythromycin): 2556.3 µg/mL
Dissolved amount, elution time 10 min ([3]; Erythromycin): 4984.2 µg/mL
Dissolved amount, elution time 30 min ([3]; Erythromycin): 5103.6 µg/mL
Dissolved amount, elution time 120 min ([3]; Erythromycin): 5904.1 µg/mL
Dissolved amount, elution time 360 min ([3]; Erythromycin): 6044.7 µg/mL

O=C(CCCN1CCC(O)(c2ccc(Cl)cc2)CC1)c1ccc(F)cc1 [10-1, Haloperidol]
Dissolved amount, elution time 3 min ([1]; Haloperidol): 8.2 µg/mL
Dissolved amount, elution time 10 min ([1]; Haloperidol): 10.0 µg/mL
Dissolved amount, elution time 30 min ([1]; Haloperidol): 11.3 µg/mL
Dissolved amount, elution time 120 min ([1]; Haloperidol): 12.8 µg/mL
Dissolved amount, elution time 360 min ([1]; Haloperidol): 13.1 µg/mL
pH at 60 minutes after dissolution ([2]; Haloperidol): 8.1
Dissolved amount, elution time 3 min ([3]; Haloperidol): 23.9 µg/mL
Dissolved amount, elution time 10 min ([3]; Haloperidol): 35.6 µg/mL
Dissolved amount, elution time 30 min ([3]; Haloperidol): 45.2 µg/mL
Dissolved amount, elution time 120 min ([3]; Haloperidol): 50.1 µg/mL
Dissolved amount, elution time 360 min ([3]; Haloperidol): 48.9 µg/mL

From patent US9248103B2, “Method for improving water solubility of slightly soluble substance” (Kabushiki Kaisha Sangi, priority 2012, dated 2016)
